Experimental data reported in PMC5855801, “Benzothiophenone Derivatives Targeting Mutant Forms of Estrogen Receptor-α in Hormone-Resistant Breast Cancers” (International Journal of Molecular Sciences, 2018).

How the values were obtained:
[1] = target: T1, full-length ERα (estrogen binding site) (Homo sapiens, UniProt P03372); assay: E2 displacement fluorescence polarization assay (PolarScreen ERα Competitor Green); settings: highest concentration 6 µM, compared to positive control E2
T1 construct: in the presence of 25 nM full-length ERα and 4.5 nM flourescein-E2; purchased Life Technologies P2698
T1 sequence (P03372 1-595): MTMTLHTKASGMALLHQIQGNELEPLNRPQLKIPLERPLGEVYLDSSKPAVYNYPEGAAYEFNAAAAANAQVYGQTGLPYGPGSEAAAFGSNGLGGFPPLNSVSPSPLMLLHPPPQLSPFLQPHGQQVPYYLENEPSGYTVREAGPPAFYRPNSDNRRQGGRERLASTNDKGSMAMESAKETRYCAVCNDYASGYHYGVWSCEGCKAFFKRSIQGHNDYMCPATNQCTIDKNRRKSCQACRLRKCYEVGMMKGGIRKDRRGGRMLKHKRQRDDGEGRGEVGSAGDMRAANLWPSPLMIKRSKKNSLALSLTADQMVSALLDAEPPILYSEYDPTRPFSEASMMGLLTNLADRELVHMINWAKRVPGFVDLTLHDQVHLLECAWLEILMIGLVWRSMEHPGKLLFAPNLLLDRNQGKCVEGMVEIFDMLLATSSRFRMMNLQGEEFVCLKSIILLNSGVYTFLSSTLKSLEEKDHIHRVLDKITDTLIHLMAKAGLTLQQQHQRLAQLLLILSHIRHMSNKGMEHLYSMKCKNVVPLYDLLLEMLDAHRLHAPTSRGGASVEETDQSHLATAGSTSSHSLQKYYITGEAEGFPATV
Description: It should be noted that selective estrogen receptor modulators (SERMs) such as tamoxifen displace co-activator protein from AF2 allosterically, i.e., by binding to the estrogen binding site (EBS). To ascertain whether VPC-16606 is not an EBS binder, 17 β-estradiol (E2) displacement was assessed with the Polar Screen Estrogen Receptor-α Competitor Green Assay Kit (P2698, Life Technologies, Carlsbad, CA, USA).
E2 displacement was assessed with the PolarScreen ERα Competitor Assay Green kit (P2698; LifeTechnologies) as per the instructions of the manufacturer. Briefly, 50 µL of assay buffer containing VPC-16606 were added to a 50-μL mixture containing 2× full-length ERα and flourescein-E2 in each well of a […] black plate to obtain final concentrations of 0.2–6.3 μM of the test compound in the presence of 25 nM full-length ERα and 4.5 nM flourescein-E2. After 2 h, polarisation was measured on a Tecan F500 microplate reader.

[2] = test system: TamR3 cells (tamoxifen-resistant MCF7-derived); assay: Presto Blue cell viability assay, TamR3; assay type: cell-based, human; settings: TamR3, 96 h, two-fold dilution starting at 50 µM
Description: The Presto Blue cell viability assay was used to assess the growth inhibitory potential of VPC-16606 on ERα^+ T47D, MCF7, ZR75-1 and TamR3 cells. They were treated for 96 h with a two-fold dilution range of the compound starting at 50 µM.
(§1) Cell viability was determined using the Presto Blue cell viability assay (Thermo Fisher Scientific, Waltham, MA, USA). Cells were seeded in clear bottom black-walled 96-well plates at a density of 5 × 10^3 cells/well in 100 μL of their respective media. On the following day, the cells were treated with test compounds (0.001–22.5 μM) in the presence of 1 nM E2 and incubated at 37 °C. After 96 h, 30 μL of Presto Blue reagent was added and incubated for 10 min at 37 °C. The fluorescent signal from viable cells was measured at 590 nm.

ERα− MDA-MB-231 cells = assay: Presto Blue cell viability assay, MDA-MB-231; assay type: cell-based, human; settings: ERα− MDA-MB-231, 96 h
PC3 cells = assay: Presto Blue cell viability assay, PC3; assay type: cell-based, human; settings: PC3, 50 µM, 96 h
Description: as §1
Supplementary Materials: Benzothiophenone Derivatives Targeting Mutant Forms of Estrogen Receptor-α in Hormone-Resistant Breast Cancers
Figure S1. Effect of VPC-16606 on viability of PC3 cells as measured in the Presto Blue assay. […]
Figure S2. TR-FRET Assay showing displacement of Fluorescein labelled PGC1 α peptide by VPC-16606 upon incubation with ER β-LBD. OHT was used at 1µM. Error bars represent standard deviation for two independent experiments performed in triplicates. […]

With `CC(=O)N(/N=C1\Sc2c(C)cccc2C1=O)c1ccccc1Cl` [VPC-16606] the “Displacement of fluorescein labelled E2 (FL-E2) from the EBS” value [1] was “minimal displacement”, the “Cell growth (Presto Blue viability)” value [2] was “significantly reduce the growth” and the “Cell growth (Presto Blue viability)” value (ERα− MDA-MB-231 cells) was “without any effect”. The “Cell viability of PC3 cells” value (PC3 cells) was “affects cell viability”.
